Test results: US8258293B2, “Tetrahydroquinoline derivatives” (MSD OSS B.V., priority 2001, dated 2012)

Target: T1, human FSH receptor (Homo sapiens, UniProt P23945)
T1 construct: expressed in transfected cells; host or cells: Chinese Hamster Ovary (CHO) cells
T1 sequence (P23945 18-695): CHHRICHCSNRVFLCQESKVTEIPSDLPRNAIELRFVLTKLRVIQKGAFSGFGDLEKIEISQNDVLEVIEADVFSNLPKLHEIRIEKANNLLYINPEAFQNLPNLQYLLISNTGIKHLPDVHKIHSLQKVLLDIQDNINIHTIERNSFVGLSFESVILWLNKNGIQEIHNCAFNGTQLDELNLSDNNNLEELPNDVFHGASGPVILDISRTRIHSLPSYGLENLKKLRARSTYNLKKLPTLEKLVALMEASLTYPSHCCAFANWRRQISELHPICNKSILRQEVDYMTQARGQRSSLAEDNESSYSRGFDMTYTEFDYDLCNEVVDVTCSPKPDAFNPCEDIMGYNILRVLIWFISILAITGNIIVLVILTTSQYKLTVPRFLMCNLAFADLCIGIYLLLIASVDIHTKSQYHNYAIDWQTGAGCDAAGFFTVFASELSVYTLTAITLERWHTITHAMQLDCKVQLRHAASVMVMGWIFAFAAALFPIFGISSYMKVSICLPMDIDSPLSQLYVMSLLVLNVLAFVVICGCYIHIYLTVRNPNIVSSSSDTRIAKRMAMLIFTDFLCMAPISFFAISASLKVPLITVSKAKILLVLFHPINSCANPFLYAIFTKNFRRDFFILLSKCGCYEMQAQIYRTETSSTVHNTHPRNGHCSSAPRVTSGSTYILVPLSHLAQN
Experiment: CHO-FSH in vitro bio activity (CRE-luciferase reporter)
Assay type: cell-based
Details: CHO cells stably transfected with human FSH receptor and CRE/luciferase reporter; half-maximal (50%) stimulation
Method: FSH activity of compounds were tested in Chinese Hamster Ovary (CHO) cells stably transfected with the human FSH receptor and cotransfected with a cAMP responsive element (CRE)/promotor directing the expression of a firefly luciferase reporter gene. Binding of ligand to the Gs-coupled FSH receptor will result in an increase of cAMP, which in turn will induce an increased transactivation of the luciferase reporter construct. The luciferase signal was quantified using a luminescence counter. For test compounds, EC50 values (concentration of test compound causing half-maximal (50%) stimulation) were calculated. For that purpose the software program GraphPad PRISM, version 3.0 (GraphPad software Inc., San Diego) was used.

SMILES	EC50 [nM]
CC(=O)N1c2ccc(NC(=O)CCC34CC5CC(CC(C5)C3)C4)cc2C(C)(c2ccccc2)CC1(C)C (stereo not shown) [Example 24, 1-Acetyl-6-(3-[adamantan-1-yl]propionyl)amino-4-phenyl-1,2,3,4-tetrahydro-2,2,4-trimethylquinoline]	< 100
CC(=O)N1c2ccc(NC(=O)c3ccc([N+](=O)[O-])cc3)cc2C(C)(c2ccccc2)CC1(C)C (stereo not shown) [Example 9, 1-Acetyl-6-(4-nitrobenzoyl)amino-4-phenyl-1,2,3,4-tetrahydro-2,2,4-trimethylquinoline]	< 100
COc1cc(C(=O)Nc2ccc3c(c2)C(C)(c2ccccc2)CC(C)(C)N3C(C)=O)cc(OC)c1OC (stereo not shown) [Example 52, 1-Acetyl-6-(3,4,5-trimethoxybenzoyl)amino-4-phenyl-1,2,3,4-tetrahydro-2,2,4-trimethylquinoline]	< 100
CC(=O)N1c2ccc(NC(=O)OC(C)(C)C)cc2C(C)(c2ccccc2)CC1(C)C (stereo not shown) [Example 1, 1-Acetyl-6-(tert-butoxycarbonyl)amino-4-phenyl-1,2,3,4-tetrahydro-2,2,4-trimethylquinoline]	< 100
CC(=O)N1c2ccc(NC(=O)c3ccc(-c4ccccc4)cc3)cc2C(C)(c2ccccc2)CC1(C)C (stereo not shown) [Example 12, 1-Acetyl-4-phenyl-6-(4-phenylbenzoyl)amino-1,2,3,4-tetrahydro-2,2,4-trimethylquinoline]	< 100
CC(=O)N1c2ccc(NC(=O)CCc3ccccc3)cc2C(C)(c2ccccc2)CC1(C)C (stereo not shown) [Example 21, 1-Acetyl-4-phenyl-6-(3-phenylpropionyl)amino-1,2,3,4-tetrahydro-2,2,4-trimethylquinoline]	< 100
CC(=O)N1c2ccc(NC(=O)c3ccccc3OC(=O)c3cc(C)on3)cc2C(C)(c2ccccc2)CC1(C)C (stereo not shown) [Example 61, 1-Acetyl-6-(2-[5-methylisoxazole-3-carbonyl]oxybenzoyl)amino-4-phenyl-1,2,3,4-tetrahydro-2,2,4-trimethylquinoline]	< 100
COc1c(Cl)cc(Cl)c(OC)c1C(=O)Nc1ccc2c(c1)C(C)(c1ccccc1)CC(C)(C)N2C(C)=O (stereo not shown) [Example 53, 1-Acetyl-6-(3,5-dichloro-2,6-dimethoxybenzoyl)amino-4-phenyl-1,2,3,4-tetrahydro-2,2,4-trimethylquinoline]	< 100
CCCc1ccc(C(=O)Nc2ccc3c(c2)C(C)(c2ccccc2)CC(C)(C)N3C(C)=O)cc1 (stereo not shown) [Example 10, 1-Acetyl-4-phenyl-6-(4-n-propylbenzoyl)amino-1,2,3,4-tetrahydro-2,2,4-trimethylquinoline]	< 100
CC(=O)N1c2cc(C)c(NC(=O)c3ccc(-c4ccccc4)cc3)cc2C(C)(c2ccccc2)CC1(C)C (stereo not shown) [Example 45, 1-Acetyl-6-(4-phenylbenzoyl)amino-4-phenyl-1,2,3,4-tetrahydro-2,2,4,7-tetramethylquinoline]	< 100
CC(=O)N1c2ccc(NC(=O)c3ccc(-c4ccc(Cl)cc4)cc3)cc2C(C)(c2ccccc2)CC1(C)C (stereo not shown) [Example 13, 1-Acetyl-6-(4-[4-chlorophenyl]benzoyl)amino-4-phenyl-1,2,3,4-tetrahydro-2,2,4-trimethylquinoline]	< 100
CC(=O)N1c2ccc(NC(=O)CC(C)C)cc2C(C)(c2ccccc2)CC1(C)C (stereo not shown) [Example 23, 1-Acetyl-6-(isovaleryl)amino-4-phenyl-1,2,3,4-tetrahydro-2,2,4-trimethylquinoline]	< 100
CC(=O)N1c2ccc(NC(=O)CN3CCN(c4ccccc4)CC3)cc2C(C)(c2ccccc2)CC1(C)C (stereo not shown) [Example 30, 1-Acetyl-6-([4-{1-phenyl}-piperazinyl]methylcarbonyl)amino-4-phenyl-1,2,3,4-tetrahydro-2,2,4-trimethylquinoline]	< 100
COc1cc(NC(=O)c2ccc(-c3ccccc3)cc2)cc2c1N(C(C)=O)C(C)(C)CC2(C)c1ccccc1 (stereo not shown) [Example 46, 1-Acetyl-6-(4-phenylbenzoyl)amino-8-methoxy-4-phenyl-1,2,3,4-tetrahydro-2,2,4-trimethylquinoline]	< 100
CC(=O)N1c2ccc(NC(=O)c3ccccc3OS(C)(=O)=O)cc2C(C)(c2ccccc2)CC1(C)C (stereo not shown) [Example 58, 1-Acetyl-6-(2-methylsulfonyloxybenzoyl)amino-4-phenyl-1,2,3,4-tetrahydro-2,2,4-trimethylquinoline]	< 100
CC(=O)N1c2ccc(NC(=O)c3ccco3)cc2C(C)(c2ccccc2)CC1(C)C (stereo not shown) [Example 22, 1-Acetyl-6-(2-furoyl)amino-4-phenyl-1,2,3,4-tetrahydro-2,2,4-trimethylquinoline]	< 100
CC(=O)N1c2ccc(OC(=O)c3ccc(-c4ccccc4)cc3)cc2C(C)(c2ccccc2)CC1(C)C (stereo not shown) [Example 37, 1-Acetyl-6-(4-phenylbenzoyl)oxy-4-phenyl-1,2,3,4-tetrahydro-2,2,4-trimethylquinoline]	< 100
CC(=O)N1c2ccc(NC(=O)c3ccccc3OC(=O)N3CCOCC3)cc2C(C)(c2ccccc2)CC1(C)C (stereo not shown) [Example 63, 1-Acetyl-6-(2-[morpholino-4-carbonyl]oxybenzoyl)amino-4-phenyl-1,2,3,4-tetrahydro-2,2,4-trimethylquinoline]	< 100
CC(=O)N1c2ccc(NC(=O)c3ccccc3Nc3ccccc3)cc2C(C)(c2ccccc2)CC1(C)C (stereo not shown) [Example 64, 1-Acetyl-6-(2-phenylaminobenzoyl)amino-4-phenyl-1,2,3,4-tetrahydro-2,2,4-trimethylquinoline]	< 100
COc1ccc(Br)c(OC)c1C(=O)Nc1ccc2c(c1)C(C)(c1ccccc1)CC(C)(C)N2C(C)=O (stereo not shown) [Example 11, 1-Acetyl-6-(3-bromo-2,6-dimethoxybenzoyl)amino-4-phenyl-1,2,3,4-tetrahydro-2,2,4-trimethylquinoline]	< 100
CNc1ccc(Br)cc1C(=O)Nc1ccc2c(c1)C(C)(c1ccccc1)CC(C)(C)N2C(C)=O (stereo not shown) [Example 51, 1-Acetyl-6-(5-bromo-2-methylaminobenzoyl)amino-4-phenyl-1,2,3,4-tetrahydro-2,2,4-trimethylquinoline]	< 100
CC(=O)N1c2ccc(NC(=O)c3ccc(Cl)cc3)cc2C(C)(c2ccccc2)CC1(C)C (stereo not shown) [Example 6, 1-Acetyl-6-(4-chlorobenzoyl)amino-4-phenyl-1,2,3,4-tetrahydro-2,2,4-trimethylquinoline]	< 100
CC(=O)N1c2ccc(NC(=O)c3ccc(C(F)(F)F)cc3)cc2C(C)(c2ccccc2)CC1(C)C (stereo not shown) [Example 8, 1-Acetyl-4-phenyl-1,2,3,4-tetrahydro-6-(4-[trifluoromethyl]benzoyl)amino-2,2,4-trimethylquinoline]	< 100
CC(=O)N1c2ccc(NC(=O)c3ccccc3)cc2C(C)(c2ccccc2)CC1(C)C (stereo not shown) [Example 7, 1-Acetyl-6-benzoylamino-4-phenyl-1,2,3,4-tetrahydro-2,2,4-trimethylquinoline]	< 100
CC(=O)N1c2ccc(NC(=O)c3cc(Br)cc(Br)c3)cc2C(C)(c2ccccc2)CC1(C)C (stereo not shown) [Example 50, 1-Acetyl-6-(3,5-dibromobenzoyl)amino-4-phenyl-1,2,3,4-tetrahydro-2,2,4-trimethylquinoline]	< 100
COc1ccc(-c2ccccc2)c(C(=O)Nc2ccc3c(c2)C(C)(c2ccccc2)CC(C)(C)N3C(C)=O)c1 (stereo not shown) [Example 15, 1-Acetyl-4-phenyl-6-(2-phenyl-5-methoxybenzoyl)amino-1,2,3,4-tetrahydro-2,2,4-trimethylquinoline]	< 100
CC(=O)N1c2ccc(NC(=O)c3cccc(C)c3-c3ccccc3)cc2C(C)(c2ccccc2)CC1(C)C (stereo not shown) [Example 16, 1-Acetyl-4-phenyl-6-(2-phenyl-3-methylbenzoyl)amino-1,2,3,4-tetrahydro-2,2,4-trimethylquinoline]	< 100
COc1ccc(COC(=O)c2ccc3c(c2)C(C)(c2ccccc2)CC(C)(C)N3C(C)=O)cc1 (stereo not shown) [Example 36, 1-Acetyl-6-(4-methoxybenzyloxy)carbonyl-4-phenyl-1,2,3,4-tetrahydro-2,2,4-trimethylquinoline]	< 100
